Results: publication PMC8453745, “Human Mass Balance and Metabolite Profiling of [^14C]‐Pamiparib, a Poly (ADP‐Ribose) Polymerase Inhibitor, in Patients With Advanced Cancer” (Clinical Pharmacology in Drug Development, 2021)

What was measured:
[1] = set-up: method as in data on file; settings: suspension in water, room temperature; ref data on file; cited from earlier work
[2] = mass balance: recovery of radioactivity in urine and feces; type: in vivo, human
From the text: Part 1 of the study included a screening phase of up to 28 days prior to drug administration to assess eligibility. Patients were admitted to the clinical research unit (CRU) at Royal Liverpool University Hospital (Liverpool, UK)/Clatterbridge Cancer Centre NHS Foundation Trust (Bebington, Wirral, UK) on day −1 and received a single dose of 60‐mg/100 μCi [^14C]‐pamiparib orally the morning of day 1. Patients remained in the CRU until completion of assessments on day 7, when discharge criteria of ≈90% of the radioactive dose being recovered or <1% of the radioactive dose being recovered in urine and feces for 2 consecutive 24‐hour collection intervals were met. If discharge criteria were not met by day 7, patients collected 24‐hour excreta samples up to day 14 on an outpatient basis. Part 2 of the study, evaluating the safety/tolerability and antitumor activity of 60 mg twice‐daily pamiparib in patients with advanced and/or metastatic solid tumors, is ongoing and is not included in this report.
Total radioactivity concentrations of [^14C]‐pamiparib in whole blood, plasma, urine, and feces were determined by liquid scintillation counting (LSC). Radioactivity in each sample was measured for 5 minutes using a Packard Tri‐Carb liquid scintillation counter model 2100TR, 2900TR, or 3100TR (Canberra Packard, Pangbourne, Berks, Australia) with the facilities for computing quench‐corrected disintegrations per minute. Metabolite identification in plasma, urine, and feces was conducted by LC‐MS. Quantitation of the metabolites present in plasma, urine, and feces was based on the profiles of radioactivity. The limit of quantitation for radioactivity in plasma, urine, and feces was set at 1% of each chromatographic analysis (run) and 10 counts per minute (cpm) peak height; therefore, radioactive peaks that were <1% of the total run or <10 cpm peak height were reported as not detected. […]
Each aliquot of urine (about 1 mL, weighed) was added directly to liquid scintillant prior to LSC. […] The radioactivity in each pooled sample was determined by LSC. […]

[3] = metabolic stability in human liver microsomes; type: in vitro ADME; settings: human, pooled human liver microsomes, 1 μM, 0.5 mg/mL HLM, NADPH
Method: (§1) Metabolic stability in human liver microsomes (HLMs) and cytochrome P450 (CYP450) phenotyping assays were conducted in 3D BioOptima (Suzhou, China) using validated methodology, [13] to determine the intrinsic clearance and enzymes responsible for metabolism of pamiparib. HLMs for microsome stability was from BD Biosciences (Woburn, New York). For phenotyping, HLMs and recombinant P450 (rCYP) were from Corning (Woburn, New York). Pamiparib (1 μM) was incubated with pooled HLM (0.5 mg/mL), NADPH (1 mM), and MgCl2 (3 mM) terminated at 0, 5, 15, 30, 60, and 90 minutes. The intrinsic clearance was calculated as 0.693/(t1/2 × HLM concentration), where t1/2 is the half‐life of pamiparib determined in HLMs. For phenotyping in HLMs, pamiparib (1 μM) was incubated in the absence or presence of isoform‐selective inhibitors: 0.2 μM α‐naphthoflavone for CYP1A2, 2 μM clopidogrel for CYP2B6, 16 μM montelukast for CYP2C8, 10 μM sulfaphenazole for CYP2C9, 30 μM nootkatone for CYP2C19, 2 μM quinidine for CYP2D6, and 1 μM ketoconazole for CYP3A. The following isoform‐selective probe substrates served as positive controls: 40 μM phenacetin for CYP1A2, 100 μM bupropion for CYP2B6, 2 μM amodiaquine for CYP2C8, 5 μM diclofenac for CYP2C9, 40 μM S‐mephenytoin for CYP2C19, 5 μM dextromethorphan for CYP2D6, and 2 μM midazolam for CYP3A4. […] Pamiparib (1 μM) was also incubated with rCYP1A2, rCYP2B6, rCYP2C8, rCYP2C9, rCYP2C19, rCYP2D6, or rCYP3A4 (50 pmol/mL) for 90 minutes with NADPH and MgCl2. The following isoform‐selective probe substrates served as positive controls: 1 μM phenacetin for CYP1A2, 2 μM bupropion for CYP2B6, 2 μM amodiaquine for CYP2C8, 2 μM diclofenac for CYP2C9, 10 μM S‐mephenytoin for CYP2C19, 1 μM dextromethorphan for CYP2D6, and 20 μM midazolam for CYP3A4. Pamiparib, M1, and M2 were analyzed by LC‐MS/MS.

[4] = test system: human liver microsomes (HLMs); assay: metabolic stability in human liver microsomes; type: in vitro ADME; settings: 90‐minute incubation in HLMs without CYP inhibitors
Method: as §1

[5] = metabolite profiling in pooled feces (radioprofiling, LC‐MS); type: in vivo, human; settings: pooled feces
Method: Total radioactivity concentrations of [^14C]‐pamiparib in whole blood, plasma, urine, and feces were determined by liquid scintillation counting (LSC). Radioactivity in each sample was measured for 5 minutes using a Packard Tri‐Carb liquid scintillation counter model 2100TR, 2900TR, or 3100TR (Canberra Packard, Pangbourne, Berks, Australia) with the facilities for computing quench‐corrected disintegrations per minute. Metabolite identification in plasma, urine, and feces was conducted by LC‐MS. Quantitation of the metabolites present in plasma, urine, and feces was based on the profiles of radioactivity. The limit of quantitation for radioactivity in plasma, urine, and feces was set at 1% of each chromatographic analysis (run) and 10 counts per minute (cpm) peak height; therefore, radioactive peaks that were <1% of the total run or <10 cpm peak height were reported as not detected. In addition, pamiparib and standards were reported, regardless of the percentage of run or peak height.
Portions of fecal homogenates (about 200‐500 mg) were subjected to combustion analysis prior to LSC. For metabolite profiling, feces samples collected 0‐24, 24‐48, 48‐72, 72‐96, and 96‐120 hours postdose were pooled by individual patient to generate 0‐ to 120‐hour pooled samples including 0.5% of each sample by weight. Feces were pooled per patient (if required) according to the appropriate 24‐hour collection period. The samples were homogenized in deionized water, avoiding excessive dilution (data on file). The radioactivity in each pooled sample was determined by LSC. The total amount of feces collected was factored into the recovery calculation. Approximately 1.6 to 2.7 g of each pooled feces sample was extracted twice with 6 mL of 0.1% formic acid in ACN. […] The combined supernatants were evaporated to dryness under nitrogen and reconstituted in 300 μL of MeOH. […] The reconstituted samples were analyzed by LC‐MS, with eluent fractions collected, and radiochemical profiles were generated based on radioactivity counts. […]

[6] = test system: CYP1A2, CYP2B6, CYP2C9, CYP2C19; assay: CYP450 phenotyping in HLMs with all other CYP inhibitors; type: in vitro ADME, human; settings: HLM incubation
Method: Metabolic stability in human liver microsomes (HLMs) and cytochrome P450 (CYP450) phenotyping assays were conducted in 3D BioOptima (Suzhou, China) using validated methodology, [13] to determine the intrinsic clearance and enzymes responsible for metabolism of pamiparib. HLMs for microsome stability was from BD Biosciences (Woburn, New York). For phenotyping, HLMs and recombinant P450 (rCYP) were from Corning (Woburn, New York). Pamiparib (1 μM) was incubated with pooled HLM (0.5 mg/mL), NADPH (1 mM), and MgCl2 (3 mM) terminated at 0, 5, 15, 30, 60, and 90 minutes. The intrinsic clearance was calculated as 0.693/(t1/2 × HLM concentration), where t1/2 is the half‐life of pamiparib determined in HLMs. For phenotyping in HLMs, pamiparib (1 μM) was incubated in the absence or presence of isoform‐selective inhibitors: 0.2 μM α‐naphthoflavone for CYP1A2, 2 μM clopidogrel for CYP2B6, 16 μM montelukast for CYP2C8, 10 μM sulfaphenazole for CYP2C9, 30 μM nootkatone for CYP2C19, 2 μM quinidine for CYP2D6, and 1 μM ketoconazole for CYP3A. The following isoform‐selective probe substrates served as positive controls: 40 μM phenacetin for CYP1A2, 100 μM bupropion for CYP2B6, 2 μM amodiaquine for CYP2C8, 5 μM diclofenac for CYP2C9, 40 μM S‐mephenytoin for CYP2C19, 5 μM dextromethorphan for CYP2D6, and 2 μM midazolam for CYP3A4. […] Pamiparib, M1, and M2 were analyzed by LC‐MS/MS.

Structure (SMILES): C[C@]12CCCN1CC1=NNC(=O)c3cc(F)cc4[nH]c2c1c34 [Pamiparib]
- chemical stability and radiopurity of the suspension established for [1]: 48 h
- administered radioactivity excreted in the feces ([2]; 192‐hour collection period): 26.9% ± 6.8%
- overall mean total recovery of radioactivity in urine and feces ([2]; 192‐hour collection period, mean ± SD, n = 4): 84.7% ± 3.5%
- mass balance achieved for all 4 subjects ([2]; individual subjects): higher than 80%
- half-life at 1 μM [3]: 3 h
- microsomal CLint at 1 μM ([3]; read-out: intrinsic clearance in HLM): 7.9 µL/min/mg
- pamiparib remaining [4]: 45.0%
- dose quantified in feces [5]: 17.5 % of the dose
- effect of all other CYP inhibitors on pamiparib metabolism [6]: nearly no effect
